pIC50: −log10 of the molar value. In brackets after ≈: the same amount, converted by molar mass. Read-outs that look alike come from different tables or passages of the source.
What was measured:
[1] = test system: BS: Bacillus substilis No. 10707; assay: Antimicrobial activity by the agar dilution method (MIC); type: cell-based
Method: (§1) Antimicrobial activity was determined by the agar dilution method using a culture medium (pH 7) prepared by dissolving 3 g of Bacto-Tryptone (manufactured by Difco, Co.), 3 g of meat extract, 1 g of yeast extract, 1 g of glucose, and 16 g of agar in 1 l of water.

[2] = test system: KP: Klebisiella pneumoniae ATCC 10031; assay: as above; type: cell-based
Method: as §1

[3] = test system: SA: Staphylococcus aureus ATCC 6538P; assay: as above; type: cell-based; conditions: ATCC6538P
Method: as §1

[4] = test system: EH: Enterococcus hirae ATCC 10541; assay: as above; type: cell-based; conditions: pH 7
Method: as §1

[5] = test system: EC: Escherichia coli ATCC 26; assay: as above; type: cell-based
Method: as §1

HeLa S3 cells = assay: HeLa S3 Cell Growth Inhibition Test; type: cell-based; conditions: Homo sapiens, 72 hours incubation, Neutral Red
Procedure, shortened: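 HeLa S3 cells seeded overnight in MEM with 10% FBS, then exposed to compound for 72 h at 37 °C. Viable cells stained with Neutral Red, dye extracted, absorbance read at 550 nm; IC50 derived against untreated cells.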

[6] = test system: Sarcoma 180 mouse solid tumor; assay: Antitumor activity against Sarcoma 180 mouse solid tumor; type: in vivo, mouse (ddY); conditions: Sarcoma-180, iv, 168 h; for response vs control in vivo at 16 mg/kg: 16 mg/kg i.v. once, 24 hours after transplant, tumor volume on day 7, read-out: T/C (tumor volume ratio treated/control)
Method: To a ddY mouse were intraperitoneally transplanted 5×10^6 sarcoma 180 cells. On the seventh day from the transplant, the cells were collected from the ascites, washed once with sterilized physiological saline, and then diluted with sterilized physiological saline to prepare a cell suspension having a concentration of 5×10^7 cells/mL. This suspension was transplanted in an amount of 0.01 mL to a subcutaneous part of the right axilla of each of male ddY mice each weighing 20±1 g.
A test compound was dissolved in physiological saline containing polyoxyethylene sorbitan monolaurate. At 24 hours after the tumor transplant, 0.2 mL of the solution was intravenously administered to the tail of each of a group of five mice.

tumor = conditions: Japanese Published Unexamined Patent Application No. 112988/89; cited from earlier work
various bacteria = conditions: Japanese Published Unexamined Patent Application No. 112988/89; cited from earlier work
[7] = Bacillus, pH 7, read-out: minimum inhibitory concentration (MIC), BS
[8] = pH 7, read-out: minimum inhibitory concentration (MIC), KP
[9] = Staphylococcus aureus, pH 7, read-out: minimum inhibitory concentration (MIC), SA
[10] = Escherichia coli, ATCC26, pH 7, read-out: minimum inhibitory concentration (MIC), EC
[11] = HeLa S3, 72 h, read-out: IC50, HeLa S3 cell growth inhibition, HeLa S3
[12] = Klebisiella pneumoniae ATCC 10031, agar dilution, pH 7, read-out: minimum inhibitory concentration (MIC), KP
[13] = Staphylococcus aureus ATCC 6538P, agar dilution, pH 7, read-out: minimum inhibitory concentration (MIC), SA
[14] = read-out: T/C (tumor volume ratio treated/control)

Row | Compound | MIC [1, 7] [µg/mL] | MIC [2, 8] [µg/mL] | MIC [3, 9] [µg/mL] | minimum inhibitory concentration (MIC), EH [4] [µg/mL] | MIC [5, 10] [µg/mL] | pIC50 (HeLa S3 cells; [11]) | response vs control in vivo at 8 mg/kg [6, 14] [%] | other results
1 | C/C1=C\C(O)C(=O)/C=C/C=C\c2csc(n2)C(C)N2C(=O)CC(C(C)(O)C(=O)SCOC(=O)CCc3ccc(O)cc3)(CC1)[S+]2[O-] (centres unmarked) [Compound 70] | 0.057 (≈ 0.0827 µM) | 0.91 (≈ 1.32 µM) | 0.91 (≈ 1.32 µM) | 0.91 (≈ 1.32 µM) | 29 (≈ 42.1 µM) | 8.59 | – | –
2 | C/C1=C\C(OC2CCCCO2)C(=O)/C=C/C=C\c2csc(n2)C(C)N2C(=O)CC(C(C)(O)C(=O)SCc3oc(=O)oc3COC3C[C@@H](O)[C@H](O)[C@@H](CO)O3)(CC1)[S+]2[O-] (some centres unmarked) [Compound 83] | 0.037 (≈ 0.0426 µM) | 4.7 (≈ 5.41 µM) | 0.32 (≈ 0.368 µM) | 0.59 (≈ 0.679 µM) | 4.7 (≈ 5.41 µM) | 7.96 | – | –
3 | CC[Si](CC)(CC)OC[C@H]1OC(OCc2oc(=O)oc2CSC(=O)C(C)(O)C23CC/C(C)=C/C(OC4CCCCO4)C(=O)/C=C/C=C\c4csc(n4)C(C)N(C(=O)C2)[S+]3[O-])C[C@@H](O[Si](CC)(CC)CC)[C@@H]1O[Si](CC)(CC)CC (some centres unmarked) [Compound 82] | – | – | – | 4.2 (≈ 3.47 µM) | – | – | – | MIC [2, 12]: 33 µg/mL (≈ 27.2 µM); MIC [3, 13]: 2.1 µg/mL (≈ 1.73 µM); response vs control in vivo at 16 mg/kg [6]: 36%; pIC50 (HeLa S3 cells; HeLa S3, read-out: IC50, HeLa S3 cell growth inhibition): 6.10
4 | C/C1=C\C(O)C(=O)/C=C/C=C\c2csc(n2)C(C)N2C(=O)CC(C(C)(O)C(=O)SCOC(=O)CCCNC(=O)[C@@H]3CCC(=O)N3)(CC1)[S+]2[O-] (some centres unmarked) [Compound 144] | 12 (≈ 16.3 µM) | 12 (≈ 16.3 µM) | 12 (≈ 16.3 µM) | 5.8 (≈ 7.87 µM) | – | – | 26 | –
5 | C/C1=C\C(O)C(=O)/C=C/C=C\c2csc(n2)C(C)N2C(=O)CC(C(C)(O)C(=O)SCOC(=O)CCCN3CCCC3=O)(CC1)[S+]2[O-] (centres unmarked) [Compound 145] | 7.7 (≈ 11.1 µM) | 7.7 (≈ 11.1 µM) | 15 (≈ 21.6 µM) | 7.7 (≈ 11.1 µM) | – | – | – | response vs control in vivo at 4 mg/kg [6, 14]: 23%
6 | COC(=O)[C@H](CCC(=O)OCSC(=O)C(C)(O)C12CC/C(C)=C/C(O)C(=O)/C=C/C=C\c3csc(n3)C(C)N(C(=O)C1)[S+]2[O-])NC(=O)C1CCC(=O)N1 (some centres unmarked) [Compound 143] | 0.29 (≈ 0.365 µM) | 0.59 (≈ 0.742 µM) | 0.29 (≈ 0.365 µM) | 0.29 (≈ 0.365 µM) | 19 (≈ 23.9 µM) | – | 27 | –
7 | C/C1=C\C(O)C(=O)/C=C/C=C\c2csc(n2)C(C)N2C(=O)CC(C(C)(O)C(=O)SCc3oc(=O)oc3CO)(CC1)[S+]2[O-] (centres unmarked) [Compound 86] | 0.16 (≈ 0.25 µM) | 0.16 (≈ 0.25 µM) | 0.33 (≈ 0.517 µM) | 0.16 (≈ 0.25 µM) | 10 (≈ 15.7 µM) | 6.21 | – | –
8 | CC1=CC(O)C(=O)C=CC=Cc2csc(n2)C(C)NC(=O)CC2(CC1)[S+]([O-])SC(=O)C2(C)O (centres unmarked) [DC107] | – | – | – | – | – | – | – | antitumor activity (tumor): antitumor activity; antimicrobial activity (various bacteria): antimicrobial activity against various bacteria
9 | COCCOCC(=O)OCc1oc(=O)oc1CSC(=O)C(C)(O)C12CC/C(C)=C/C(OC3CCCCO3)C(=O)/C=C/C=C\c3csc(n3)C(C)N(C(=O)C1)[S+]2[O-] (centres unmarked) [Compound 100] | – | – | – | 0.33 (≈ 0.393 µM) | – | – | – | MIC ([1]; Bacillus substilis No. 10707, agar dilution, pH 7, read-out: minimum inhibitory concentration (MIC), BS): 0.041 µg/mL (≈ 0.0489 µM); MIC [2, 12]: 0.65 µg/mL (≈ 0.775 µM); MIC [3, 13]: 0.081 µg/mL (≈ 0.0965 µM); MIC ([5]; ATCC26, Escherichia coli ATCC 26, agar dilution, pH 7, read-out: minimum inhibitory concentration (MIC), EC): 2.6 µg/mL (≈ 3.1 µM); response vs control in vivo at 16 mg/kg [6]: 30%; pIC50 (HeLa S3 cells; HeLa S3, 72 h, HeLa S3, read-out: IC50, HeLa S3 cell growth inhibition): 7.74
10 | C/C1=C\C(O)C(=O)/C=C/C=C\c2csc(n2)C(C)N2C(=O)CC(C(C)(O)C(=O)SCc3oc(=O)oc3COC=O)(CC1)[S+]2[O-] (centres unmarked) [Compound 88] | – | – | – | – | – | 6.49 | 49 | –

Source: patent US5981558A, “DC107 derivatives” (Kyowa Hakko Kogyo Co., Ltd., priority 1996, dated 1999)
